In patent publication US7741275B2, “Agents and use thereof” (Lipopeptide AB, priority 2004, dated 2010):

Key:
HaCaT and HEKn cells = assay type: cell-based
Description: (§1) 25,000 cells/well were plated in 6-well plate culture dishes. […], cells were treated with 0, 0.23, 0.46, 0.69, 0.9, 1.15, 2.3, 4.6 and 11.5 μM LL-37. Each treatment was performed in triplicate. The peptide was diluted in medium (DMEM 5% FCS to HaCaT cells and Epilife basal Medium supplemented with 0.1% FCS to HEKn cells). The cells were treated during a total time of 24 h. After LL-37 stimulation, the topoisomerase I inhibitor camptothecin (CAM) (Sigma Chemical Co., St. Luis, Mo.) in dimethylsulfoxide was added to the cells to a final 6 μM concentration. Cells were further incubated for 24 h before analysis.
Two apoptotic parameters, the loss of the membrane integrity and DNA decrease were evaluated by flow cytometry.
Evaluation of Membrane integrity: After stimulation with LL-37, and treatment with CAM, cells were harvested by trypsinization. The cells were then washed in cold Dulbecco's phosphate-buffered saline (PBS) and counted with a haemocytometer (Hausser Scientific, Horsham, Pa.). Cell density was adjusted to 1×10^6 cells/ml in PBS. Apoptosis was detected by staining with propidium iodide and YO-PRO-1 dye (Molecular Probes, Eugene, Oreg.). Stained cells were analyzed on a FACScan (Beckton-Dickinson, San Jose, Calif.). Cells were gated for analysis on the basis of the forward (FSC) and side light scatter characteristics (SSC). Analysis of cells expressing YO-PRO and propidium iodide (PI) was done using Cell Quest software (Becton Dickinson), which provided percentages of YO-PRO and PI-positive cells. Cells that stained green with YO-PRO were considered apoptotic. Cells that stained also red, with propidium iodide, were necrotic. Live, viable cells take up little or no dye.
Analysis of DNA content by flow cytometry. The PI/RNase staining buffer (BectonDickinson) was used for this analysis. Trypsinized cells were fixed in cold 70% (v/v) ethanol, and stored until its use at 4° C. The DNA content was measured through incorporation of propidium iodide into DNA. Fluorometric analysis was performed using a FACScan flow cytometer (Becton and Dickinson, Mountain View, Calif., USA). FSC (forward light scatter) and SSC (side light scatter) of particles were simultaneously measured to determine the size and the granularity of cells. The red fluorescence of PI stained nuclei was detected in the FL-4 window (600 nm band pass filter and 35 nm bandwidth). The intensity of fluorescence was proportional to the cellular DNA content. Each histogram was divided into two parts: (1) the M1 area representing asynchronous, non-apoptotic, live cells (cells in G1,S and G2 phases with DNA content equal to 2n to 4N); and (2) the M2 area representing apoptotic cells with a smaller quantity of DNA in comparison to living cells.

Caspase-3 = Caspase-3 activity assay; assay type: cell-based, human
Description: as §1
Caspase-3 enzymatic activity was estimated using the fluorometric substrate VDVAD-AMC (100 μM) and DEVD-AMC (50 μM) as previously described.

IAP-2 mRNA = assay: IAP-2 expression by RT-PCR; assay type: cell-based, human
Description: HEKn cells were treated with 2 μM LL-37 and harvested at different time points after stimulation. RNA from these cells was reverse transcribed and the expression of IAP-2 was determined by real-time PCR. The transcription level of IAP-2 for each time point is shown normalized against 18S RNA and relative to the untreated cells (control set as 1 for each time point).
HEKn cells were treated with or without the specific COX-2 inhibitor SC-791 (25 nM) and further incubated for 6 hours with or without LL-37 (2 μM).
(§2) Total RNA was isolated from cells after different treatments according to the manufacturer's directions by using the Quiagen RNasy kit (Operon Biotechnologies, Cologne, Germany). Reverse transcription was performed with a first-strand synthesis kit (Amershan Biosciences)

HaCaT cells [1] = assay: Pertussis toxin assay (LL-37 induced proliferation); assay type: cell-based, human; settings: pretreatment with pertussis toxin 20 ng/ml 24 h before LL-37 (5 or 10 μg/ml); not shown
Description: To assess the involvement of FPRL1 in mediating the stimulation of epithelial cell proliferation induced by hCAP18/LL-37, HaCaT cells were treated with the G-protein-coupled receptor inhibitor pertussis toxin. Cells were preincubated with pertussis toxin (Sigma-Aldrich, Switzerland) 24 h before the LL-37 treatment in a final toxin concentration of 20 ng/ml. Medium was changed 48 hours after cell seeding and the HaCaT cells were treated with 100 μl of medium (DMEM+5% FCS and PEST) containing synthetic biologically active LL-37 peptide at 5 or 10 μg per ml respectively. Cells treated with only DMEM+5% FCS and PEST served as control.

HaCaT cells [2] = assay: LL-37 peptide treatment of epithelial cells, [3H]-Thymidine incorporation; assay type: cell-based, human; settings: 5% fetal calf serum, LL-37 10 μg/ml, vs non treated control
Description: A spontaneously immortalised human keratinocyte cell line (HaCaT)^19 was cultured in DMEM (Dulbecco's modified Eagle's medium, Gibco BRL, Life Technologies, Scotland) supplemented with 10% FCS (fetal calf serum, Hy-Clone, Boule Nordic AB Huddinge, Sweden) and antibiotics (PEST=penicillin 50 U/l and streptomycin […], Gibco BRL). Cells were harvested at 70% confluence and seeded in 96-well plates, 2000 cells in 100 μl medium (DMEM+10% FCS and PEST). After 12 hours, medium was changed to serum free medium (DMEM+PEST) and cells were synchronized in G0/G1 by serum starvation for 72 hours and then treated with 100 μl of medium (DMEM+5% FCS+PEST) containing synthetic biologically active LL-37 peptide at 10 μg per ml. Cells treated with only DMEM+5% FCS and PEST served as control. The experiments were performed in quadruplicates. Cell proliferation was evaluated by [^3H]-Thymidine incorporation. Cells were treated with 1 μCi/well of [^3H]-Thymidine (20.00 Ci/mmol, Perkin Elmer Life Sciences Inc. Boston, Mass.) during 12 hours and harvested (Harvester 96, Tomtec, Orage, Conn.) onto a glass fiber filter (Wallac Oy Turku, Finland). The incorporation of [^3H]-Thymidine was determined using a liquid scintillation counter (Microbeta Pluss, Wallac Sveriges AB). The experiment was repeated twice in 6 replicates.

ERK1/2 = assay: Assay of phosphorylated ERK1/2 in LL-37 treated HaCaT cells; assay type: cell-based, human; settings: LL-37 10 μg/ml, Western blot
Description: HaCaT cells were seeded at 10% confluence and kept in DMEM with 0.2% FCS for 36 hours. For the next 48 hours, cells were cultured in DMEM with 1% or 5% FCS respectively, and in presence or absence of LL-37 at 10 μg/ml, with daily changes of medium. EGF at 10 ng/ml served as positive control. The expression of phosphorylated ERK 1/2 was evaluated by Western blot analysis with a mouse monoclonal antibody (Cell Signaling Technology, Beverly Mass.).

COX-2 mRNA = assay: COX-2 expression by RT-PCR; assay type: cell-based, human; settings: HEKn cells, 2.3 μM LL-37
Description: HEKn cells were treated with 2 μM LL-37 and harvested at 6, 12 and 24 hours after stimulation. Untreated cells were used as a control in each time point (light grey columns). RNA from these cells was reverse transcribed and the relative expression of COX-2 with respect to the control was determined by qPCR as above.
as §2

[3] = Antibacterial assay of synthetic LL-37; settings: synthetic LL-37 peptide
From the text: LL-37 peptide was synthesised and purified by HPLC to a purity of 98% (PolyPeptide Laboratories A/S, Hillerød, Denmark). Biological activity of the peptide was confirmed in an antibacterial assay^18.

hCAP18 transcription [4] = settings: via vitamin D receptor binding to response element in hCAP18 promoter; cited from earlier work
hCAP18 transcription [5] = assay: Initial studies on small-molecule control of hCAP18 transcription; assay type: cell-based, human
From the text: Since thus small molecules can control the expression of hCAP18, it is meaningful to systematically screen for inhibitory compounds. Initial studies have shown that estrogen and some of its metabolites have no effect. […] Based on these findings, antagonists to vitamin D, such as ZK159222 (Schering A G), and TEI-9647 (Tejin Institute for Medical Research, Tokyo), and antagonists to vitamin A such as AGN193109 (Allergen Pharmaceuticals), are potential agents for use in the methods of the invention.

Molecule: CC[C@@]1(O)C(=O)OCc2c1cc1n(c2=O)Cc2cc3ccccc3nc2-1 [CAM, camptothecin]
- induction of apoptosis (membrane integrity, DNA profile) (HaCaT and HEKn cells; 6 μM CAM, 24 hours, HaCaT and keratinocytes): morphological changes characteristic of apoptosis
- time of peak caspase activity (Caspase-3; keratinocytes, CAM treatment): 24 h
- caspase activity (Caspase-3; keratinocytes, within the first 12 hours of CAM treatment): significantly increased

Molecule: NS(=O)(=O)c1ccc(-c2c(-c3ccccc3)noc2C(F)F)cc1 [SC-791]
- LL-37 induced increase of IAP-2 mRNA after COX-2 inhibition (IAP-2 mRNA; HEKn cells pretreated 12 h with 25 nM SC-791, then 2 μM LL-37): did not increase the IAP-2 mRNA levels

Molecule: pertussis toxin
- suppression of proliferation of HaCaT cells (HaCaT cells [1]): approximately 50%

Molecule: LL-37: synthetic, biologically active C-terminal 37 amino acid peptide of human cathelicidin hCAP18
- cell proliferation ([3H]-Thymidine incorporation) (HaCaT cells [2]): significant increase in cell proliferation
- activation of ERK1/2 (ERK1/2): no significant activation
- amount of apoptotic cells (HaCaT and HEKn cells; 24 h with LL-37 alone or simultaneously with LL-37 and CAM, data not shown): not change in the amount of apoptotic cells
- inhibition of CAM induced apoptosis (HaCaT and HEKn cells; LL-37 0.23 μM up to 2,3 μM for 24 hours before CAM 6 μM 24 h, HEKn and HaCaT cells): inhibited both DNA fragmentation and loss of membrane permeability
- cell death (HaCaT and HEKn cells; LL-37 4.6 μM and 11.5 μM, 24 hours before CAM, non-apoptotic mechanisms): caused cell death
- cytotoxicity (increased fraction of necrotic but not apoptotic cells) (HaCaT and HEKn cells; LL-37 4.6 and 11.5 μM, alone or simultaneous with CAM): cytotoxic
- effect on camptothecin-induced caspase activation (Caspase-3; pre-treatment with 2.3 μM LL-37): decreased camptothencin-induced caspase activation
- IAP-2 mRNA (IAP-2 mRNA; HEKn cells, 2.3 μM LL-37, from 6 hours to 12 hours after stimulation): increased IAP-2 mRNA
- c-IAP-2 levels (IAP-2 mRNA; HEKn cells, LL-37 below 2.3 μM, data not shown): did not affect the c-IAP-2 levels
- COX-2 mRNA levels (COX-2 mRNA): time-dependent increase in mRNA levels
- time of highest COX-2 mRNA levels (COX-2 mRNA): 12 h
- biological activity in antibacterial assay [3]: confirmed

Molecule: vitamin D
- induction of hCAP18 transcription (hCAP18 transcription [4]): strongest inducer of hCAP18 transcription

Molecule: Vitamin A
- hCAP18 transcription (hCAP18 transcription [5]; breast cancer cell line ZR-75-1): stimulates transcription
- hCAP18 transcription (hCAP18 transcription [5]; skin keratinocytes): inhibits the transcription

Molecule: estrogen
- effect on hCAP18 expression (hCAP18 transcription [5]; initial studies, cells not given): no effect
